{"source": "patent US20240238380A1", "about": "“COMPOSITION FOR COMBINATION THERAPY COMPRISING GROWTH DIFFERENTIATION FACTOR-15 VARIANT AND GLUCAGON-LIKE PEPTIDE-1 RECEPTOR AGONIST” (YUHAN CORPORATION, priority 2021, published 2024)", "assay_type_in_all_cases": "in vivo", "key": {"[1]": {"assay": "Anti-obesity effect by repeated administration alone and in combination with semaglutide in ob/ob mice (Example 5)", "from_the_text": "The ob/ob mouse has a mutation in the leptin gene resulting in leptin deficiency, and are characterized by hyperglycemia, insulin resistance, overeating, and obesity. 5-week-old male ob/ob mice (Jackson Laboratory, USA) were purchased from Raon Bio (Animal Inc., Republic of Korea). The ob/ob mice were acclimatized with normal food (Teklad Certified Irradiated Global 18% Protein Rodent Diet, 2918C, Harlan Co., USA) for 4 weeks, and drug treatment was started at 9 weeks of age. On the day before drug treatment, the mice were grouped based on the body weight of individual mice and random blood glucose levels determined by sampling at the tail vein (n=6 per group). Thereafter, 1 and 10 nmol/kg of FM9-6+Fc_hole alone, 10 and 30 nmol/kg of semaglutide alone, and FM9-6+Fc_hole and semaglutide at doses of 1+10 and 10+10 nmol/kg in combination were subcutaneously administered thereto a total of 10 times every 3 days (Q3D), and body weight and food intake were measured every day or every 3 days during the experimental period (29 days). Here, DPBS (Dulbecco's phosphate-buffered saline, Gibco, USA) was administered for vehicle treatment."}, "[2]": {"assay": "Anti-obesity effect alone and in combination with semaglutide in diet-induced obese (DIO) mice (Example 4)", "conditions": "for Change in body weight (%) vs. day 0, Maximum efficacy: 8 weeks", "from_the_text": "Diet-induced obese (DIO) mice, obtained by feeding mice with high-fat food, are characterized by obesity, hyperglycemia, and insulin resistance. Diet-induced obese mice (Taconic, USA) resulting from feeding C57BL/6N mice with high-fat food (60 kcal % fat, Research Diets, Cat #D12492, USA) for 8 weeks were purchased from Raon Bio (Animal Inc., Republic of Korea). The diet-induced obese mice were additionally fed with 60% high-fat food for 5 weeks after arrival, and then used in the present test. On the day before drug treatment, the mice were grouped based on the average body weight of individual mice (n=6 per group), after which 10 and 30 nmol/kg of FM9-6+Fc_hole alone, 10 and 30 nmol/kg of semaglutide (long-acting GLP-1 derivative, SEQ ID NO: 114) alone as a control drug, and FM9-6+Fc_hole and semaglutide were administered subcutaneously every 2 days (Q2D) for a total of 8 weeks in a combination of 10+10 and 30+30 nmol/kg. The semaglutide that was used in the test was Ozempic® (semaglutide) from Novo NorDisk. Here, for vehicle treatment, DPBS (Dulbecco's phosphate-buffered saline, Gibco, USA) was subcutaneously administered every 2 days (Q2D). Body weight was measured every 2 days from the first day of drug treatment to day 54, and the results thereof are shown in Table 4 below."}, "[3]": {"assay": "Pharmacokinetics of long-acting GDF15 fusion protein (dimer) in C57BL/6N mice", "conditions": "1 mg/kg subcutaneous", "method": "6-week-old male C57BL/6N mice (Orient Bio, Republic of Korea) were purchased from Hallym Lab. Animal Inc., Republic of Korea. Animals were acclimated for 7 days, and on the day of drug administration, the mice were grouped based on the average body weight of individual mice (n=3 per blood sampling time per group). Then, FM9-4+Fc_hole, FM9-6+Fc_hole, FM11-4+Fc_hole, and FM11-6+Fc_hole were subcutaneously administered at 1 mg/kg to each group, and blood samples were collected at 4, 24, 48, 72, 96, 120, 168, and 240 hours after administration. Determination of active GDF15 in serum was achieved by enzyme-linked immunosorbent assay (ELISA), and pharmacokinetic parameters of each long-acting GDF15 fusion protein (dimer) are shown in Table 3 below."}, "[4]": {"assay": "Inhibitory effect on gastric emptying (acetaminophen exposure) in normal rats (Example 8)", "conditions": "for AUClast of acetaminophen (μg · min/mL), 3 hr / AUClast of acetaminophen (μg · min/mL), 24 hr / AUClast of acetaminophen (μg · min/mL), 72 hr: rats; for AUClast of acetaminophen (μg · min/mL), 3 hr: acetaminophen 3 hr after dose; for AUClast of acetaminophen (μg · min/mL), 24 hr: acetaminophen 24 hr after dose; for AUClast of acetaminophen (μg · min/mL), 72 hr: acetaminophen 72 hr after dose", "method": "Therefore, this example was performed to investigate the inhibitory effect on gastric emptying when the novel long-acting GDF15 fusion protein was administered at the doses equal to the effective dose, higher than the maximum effective dose, or in combination with a GLP-1 receptor agonist to rats. 6-week-old male SD rats (Orient Bio, Republic of Korea) were purchased from Hallym Lab. Animal Inc., Republic of Korea. Animals were acclimated for 7 days. On the day of drug administration, the rats were grouped based on the average body weight of individual rats (n=5 per group) and fasted for at least 6 hours before oral administration of acetaminophen. Then, 0.1, 1, and 10 nmol/kg of FM9-6+Fc_hole, 10 nmol/kg of semaglutide (long-acting GLP-1 derivative, SEQ ID NO: 114), and combination of FM9-6+Fc_hole and semaglutide (1+10 nmol/kg) were subcutaneously administered. The semaglutide was Ozempic® (semaglutide) from Novo NorDisk. As a negative control drug, D-PBS (normal vehicle) was subcutaneously administered, and as a positive control drug, 30 mg/kg of loperamide was orally administered 45 minutes before acetaminophen administration. On 3, 24 and 72 hours after a single dose of the test articles, acetaminophen was orally administered at 100 mg/kg to rats, and blood samples were collected before and at 30, 60, 90, 120 and 150 minutes after acetaminophen administration. The plasma concentration of acetaminophen was analyzed, and the pharmacokinetic profiles and the systemic exposures of acetaminophen were compared to evaluate the inhibitory effect on gastric emptying among the groups."}}, "note": "Marks after values point to notes of the source that are not given here.", "data": [{"substance": "FM9-6 + Fc_hole: long-acting GDF15 fusion protein (dimer): GDF15 ΔN2, S64R, IgG1 Fc_knob/Fc_hole, linker GS(EAAAK)5; SEQ ID NOs: 103 and 47", "values": [{"measurement": "Change in body weight (%) vs. ob/ob control, Maximum efficacy", "setting": "[1]; 1 nmol/kg s.c. Q3D", "result": "−21.49 (On Day 29)**** %"}, {"measurement": "Change in body weight (%) vs. ob/ob control, Efficacy on Day 29", "setting": "[1]; 1 nmol/kg s.c. Q3D", "result": "−21.49**** %"}, {"measurement": "Change in body weight (%) vs. ob/ob control, Maximum efficacy", "setting": "[1]; 10 nmol/kg s.c. Q3D", "result": "−24.87 (On Day 29)**** %"}, {"measurement": "Change in body weight (%) vs. ob/ob control, Efficacy on Day 29", "setting": "[1]; 10 nmol/kg s.c. Q3D", "result": "−24.87 **** %"}, {"measurement": "Change in body weight (%) vs. day 0, Maximum efficacy", "setting": "[2]; 10 nmol/kg s.c. Q2D", "result": "−34.57 (On Day 54)**** %"}, {"measurement": "Change in body weight (%) vs. day 0, Efficacy on Day 54", "setting": "[2]; 10 nmol/kg s.c. Q2D", "result": "−34.57**** %"}, {"measurement": "Change in body weight (%) vs. day 0, Maximum efficacy", "setting": "[2]; 30 nmol/kg s.c. Q2D", "result": "−35.07 (On Day 54)**** %"}, {"measurement": "Change in body weight (%) vs. day 0, Efficacy on Day 54", "setting": "[2]; 30 nmol/kg s.c. Q2D", "result": "−35.07**** %"}, {"measurement": "AUClast", "setting": "[3]", "result": 939.30872, "unit": "µg·h/mL"}, {"measurement": "CL/F", "setting": "[3]", "result": 21.8, "unit": "mL/day/kg"}, {"measurement": "T1/2,app", "setting": "[3]", "result": 84.28, "unit": "h"}, {"measurement": "Tmax", "setting": "[3]", "result": 24, "unit": "h"}, {"measurement": "Cmax", "setting": "[3]; active GDF15 in serum by ELISA", "result": 7581.92, "unit": "ng/mL"}, {"measurement": "AUClast of acetaminophen (μg · min/mL), 3 hr", "setting": "[4]; 0.1 nmol/kg s.c. single dose", "result": 1873.02, "unit": "µg·min/mL"}, {"measurement": "AUClast of acetaminophen (μg · min/mL), 24 hr", "setting": "[4]; 0.1 nmol/kg s.c. single dose", "result": 2652.42, "unit": "µg·min/mL"}, {"measurement": "AUClast of acetaminophen (μg · min/mL), 72 hr", "setting": "[4]; 0.1 nmol/kg s.c. single dose", "result": 3054.78, "unit": "µg·min/mL"}, {"measurement": "AUClast of acetaminophen (μg · min/mL), 3 hr", "setting": "[4]; 1 nmol/kg s.c. single dose", "result": 2615.40, "unit": "µg·min/mL"}, {"measurement": "AUClast of acetaminophen (μg · min/mL), 24 hr", "setting": "[4]; 1 nmol/kg s.c. single dose", "result": 1878.30, "unit": "µg·min/mL"}, {"measurement": "AUClast of acetaminophen (μg · min/mL), 72 hr", "setting": "[4]; 1 nmol/kg s.c. single dose", "result": 3526.86, "unit": "µg·min/mL"}, {"measurement": "AUClast of acetaminophen (μg · min/mL), 3 hr", "setting": "[4]; 10 nmol/kg s.c. single dose", "result": 1497.84, "unit": "µg·min/mL"}, {"measurement": "AUClast of acetaminophen (μg · min/mL), 24 hr", "setting": "[4]; 10 nmol/kg s.c. single dose", "result": 2385.36, "unit": "µg·min/mL"}, {"measurement": "AUClast of acetaminophen (μg · min/mL), 72 hr", "setting": "[4]; 10 nmol/kg s.c. single dose", "result": 3100.59, "unit": "µg·min/mL"}, {"measurement": "gastric emptying (in words)", "setting": "[4]; rats, 0.1, 1, and 10 nmol/kg, 3, 24, and 72 hours after administration", "result": "did not affect gastric emptying"}]}]}
